# Test system: hippocampus of SAMP8 mice
# Test: Hippocampal protein levels by western blot in SAMP8 mice
# Type: in vivo, mouse
# Settings: 2 mg kg^–1 day^–1 oral, 4 weeks, vs control
# Source text: In Vivo Proof-of-Concept of the Dual sEH / AChE Inhibitor […] in SAMP8 Mice Animals and treatment. The senescence-accelerated mouse-prone 8 (SAMP8) is an accelerated aging model established through phenotypic selection from AKR/J mice by […]
# abnormal APP and β-amyloid processing and tau pathology, among others. Likewise, SAMP8 […]
# and oxidative stress markers are present at early ages and during adultness.15 In this work, 5-month-old male SAMP8 mice were used to perform behavioral and molecular analyses.
# Animals were randomly divided into SAMP8 control (n=8) and SAMP8 treated with 12c […]
# (n=8, 2 mg kg‒1 day‒1). The animals had free access to food and water and were kept under standard temperature conditions (22 ± 2 °C) and 12-h/12-h light/dark cycles (300 lux/0 lux).
# Compound 12c was dissolved in 1.8% (2-hydroxypropyl)-β-cyclodextrin (Sigma-Aldrich, St.
# Louis, MO) and administered through drinking water for 4 weeks (Figure S6 of the Supporting Information). Control groups received water plus 1.8% (2-hydroxypropyl)-β-cyclodextrin during the treatment period. After 4 weeks of treatment, behavioral and cognitive tests were performed to study the effects of treatment on working memory. Drug administration was continued until euthanasia by cervical dislocation, three days after the cognitive tests were completed. The brains were immediately removed from the skulls and the hippocampi were dissected, frozen and maintained at ‒80 °C.
# Weight and water consumption were controlled each week, and compound concentration was adjusted accordingly to reach the optimal dose. Mice were treated according to European Community Council Directive 86/609/EEC and were approved by the Institutional Animal Care and Use Committee of the University of Barcelona (670/14/8102) and by Generalitat de Catalunya, Spain (10291). All studies and procedures for the behavioral tests, brain dissection and extractions followed the ARRIVE. Every effort was made to minimize animal suffering and to reduce the number of animals. […]
# Exploration was defined as sniffing or touching the objects with the nose and/or forepaws.
# The discrimination index (DI) was calculated as (TN‒TO)/(TN+TO). To avoid object preference biases, objects were alternated. 70% EtOH was used to clean the arms and objects after each trial for the elimination of olfactory cues.
# Molecular analyses. Immunodetection experiments by western blot. The hippocampal tissue from each animal was homogenized in lysis buffer (Tris HCl pH 7.4 mM, NaCl 150 mM, EDTA 5 mM and 1X-Triton X-100) containing phosphatase and protease inhibitors (Cocktail II, Sigma-Aldrich, St. Louis, MO, USA) to obtain total protein homogenates. The Bradford technique was used to determine total protein concentration. Aliquots of 15 μg of total hippocampal protein were used and separated by sodium dodecyl sulfate-polyacrylamide gel […] (SDS-PAGE) (8‒20%) and transferred into polyvinylidene difluoride (PVDF) membranes (Merck-Millipore, Burlington, MA, USA) for 2 h. The membranes were blocked in 5% non-fat milk in TRIS-buffered saline (TBS) containing 0.1% Tween 20 (TBS-T, Sigma-Aldrich, St. Louis, MO, USA) for 1 h at room temperature, and then, overnight […]
# membranes were washed with TBS-T 3 times for 5 min and incubated with secondary antibodies for 1 h at room temperature. Immunoreactive protein was viewed with a Chemiluminescence-based detection kit, following the manufacturer’s protocol (ECL Kit; Merck-Millipore), and digital images were acquired using a ChemiDoc XRS+ System (BioRad lab, Hercules, CA, USA). Semi-quantitative analyses were done using ImageLab Software (BioRad Lab), and results were expressed in Arbitrary Units (AU) considering control protein levels as 100%. Protein loading was routinely monitored by immunodetection of glyceraldehyde-3-phosphate dehydrogenase (GADPH).
compound,measurement,value
"O=C(Nc1ccc(OC(F)(F)F)cc1)NC1CCN(C(=O)CCCCNc2c3c(nc4cc(Cl)ccc24)CCCC3)CC1 [12c, 1-{1-{5-[(6-Chloro-1,2,3,4-tetrahydroacridin-9-yl)amino]pentanoyl}piperidin-4-yl}-3-[4-(trifluoromethoxy)phenyl]urea]",hippocampal levels of synaptophysin (SYN),significantly increased
same,hippocampal protein levels of NFkβ,reduced in mice treated with 12c relative to untreated mice but without reaching statistical significance
same,hippocampal protein levels of sAPPα,significant increase
same,hippocampal protein levels of sAPPβ,tendency toward reduced levels
same,tau phosphorylation at Ser396,significant site-specific reduction
same,tau phosphorylation at Ser404,slightly decreased phosphorylation
